Values quoted from earlier work, collected in US6803060B2, “Composition to boost libido” (priority 2000, dated 2004).

What was measured:
[1] = system: corpus cavernosum; details: for erection after injection into the corpus cavernosum: injected directly into the corpus cavernosum with a hypodermic needle; for duration of erection after injection: intracavernosal injection, appropriate dose
[2] = system: impotentia erectionis; details: buccal, 100 I.U. three times a day for 14 days
[3] = system: male erectile dysfunction; details: alone or in combination with papaverine
[4] = system: impotent men; details: ingestion

Row | SMILES | erection after injection into the corpus cavernosum [1] | other results
1 | CCN(CC)CCOC(=O)C(Cc1cccc2ccccc12)CC1CCCO1 (mixture of isomers) [naftidrofuryl] | caused erection | –
2 | COc1ccc(Cc2nccc3cc(OC)c(OC)cc23)cc1OC [papaverine] | caused erection | duration of erection after injection [1]: unrelenting erection lasting for hours
3 | CC[C@H](C)[C@@H]1NC(=O)[C@H](Cc2ccc(O)cc2)NC(=O)[C@@H](N)CSSC[C@@H](C(=O)N2CCC[C@H]2C(=O)N[C@@H](CC(C)C)C(=O)NCC(N)=O)NC(=O)[C@H](CC(N)=O)NC(=O)[C@H](CCC(N)=O)NC1=O [oxytocin] | – | patients with improvement of impotentia erectionis [2]: 12 of the 16
4 | CCCCC[C@H](O)/C=C/[C@H]1[C@H](O)CC(=O)[C@@H]1CCCCCCC(=O)O [prostaglandin E1] | – | erectile response [3]: improved erectile response
5 | CC(COc1ccccc1)N(CCCl)Cc1ccccc1 (stereo not shown) [phenoxybenzamine] | caused erection | duration of erection after injection [1]: unrelenting erection lasting for hours
6 | CN(C)CCCN1c2ccccc2CCc2ccccc21 [imipramine] | caused erection | –
7 | CC(=O)Oc1cc(C(C)C)c(OCCN(C)C)cc1C [thymoxamine] | caused erection | –
8 | COC(=O)[C@@H]1[C@H]2C[C@H]3c4[nH]c5ccccc5c4CCN3C[C@@H]2CC[C@@H]1O [yohimbine] | – | treated patients reporting complete satisfaction [4]: 5%; subjective improvement in erectile ability ([4]; impotent men treated): 38%
9 | Cc1ccc(N(CC2=NCCN2)c2cccc(O)c2)cc1 [phentolamine] | caused erection | –
10 | COc1ccc(CCN(C)CCCC(C#N)(c2ccc(OC)c(OC)c2)C(C)C)cc1OC (stereo not shown) [verapamil] | caused erection | –
